Results published in the Biogen ADME set (Fang et al. 2023).
Converted amounts (≈) assume the structure as drawn.

Details: for aqueous solubility: pH 6.8

Row | MDR1-MDCK efflux ratio | intrinsic clearance, human liver microsomes [L/h/kg] | intrinsic clearance, rat liver microsomes [L/h/kg] | aqueous solubility [mg/mL] | fraction unbound, human plasma | fraction unbound, rat plasma | SMILES
1 | 1.98 | 15.8 | 81 | 0.0225 (≈ 69.7 µM) | – | – | O=C(CCn1cncn1)N(CC#Cc1ccccc1)C1CCCC1
2 | 0.345 | ≤ 0.284 | ≤ 0.64 | 0.0607 (≈ 180 µM) | – | – | O=C(O)CCC(=O)Nc1ccccc1-c1nc2ccccc2[nH]c1=O
3 | – | 6.27 | 40.1 | 0.00385 (≈ 8.32 µM) | – | – | C[C@@H](CN1CCC(n2c(=O)[nH]c3cc(Cl)ccc32)CC1)NC(=O)c1ccc2ccccc2c1
4 | 0.536 | – | – | 0.0002 (≈ 0.543 µM) | – | – | COc1ccc(OCc2nn3c(-c4ccc(OC)cc4)nnc3s2)cc1
5 | 7.25 | 21.6 | 105 | – | – | – | O=S(=O)(NCc1n[nH]c2c1CCCCC2)c1ccc(OC(F)F)cc1
6 | 1.11 | 1.34 | 12.5 | 0.0433 (≈ 122 µM) | – | – | CN1CCCN(c2nc(C(F)(F)F)nc3cc4c(cc23)OCO4)CC1
7 | – | 2.11 | 22.9 | – | – | – | Oc1c(C(c2ccc(F)cc2)N2CCCCC2)ccc2cccnc12 (stereo unspecified)
8 | 0.366 | ≤ 0.284 | ≤ 0.64 | – | – | – | O=C(NC[C@]1(O)CCN(Cc2ccsc2)C[C@H]1O)c1c[nH]cn1
9 | 2.14 | 18.6 | 89.2 | 0.00515 (≈ 12.1 µM) | – | – | CCOC(=O)c1c(C)[nH]c(CN(Cc2ccccc2)C(=O)c2ccccc2Cl)c1C
10 | 47.8 | ≤ 0.284 | 6.5 | – | – | – | Clc1ccc2c(c1)CCc1cccnc1C2=C1CCNCC1
11 | 2.26 | 24 | 98 | 0.0292 (≈ 78.4 µM) | 0.0351 | 0.0289 | Fc1ccccc1-c1c[nH]nc1C1CCCN1Cc1ccc2ncccc2c1 (stereo unspecified)
12 | 0.84 | 19.8 | 82.9 | 0.0419 (≈ 147 µM) | – | – | CN(C)CCN(Cc1ccccc1)Cc1ccccc1O
13 | 22.3 | 1.93 | 59.9 | 0.0491 (≈ 132 µM) | – | – | CC(C)c1nc(O)c2nnn(C[C@@H]3CCCN(Cc4cccs4)C3)c2n1
14 | 3.89 | ≤ 0.284 | 3.06 | – | – | – | Cn1cc(C(C)(C)NC(=O)C#Cc2ccc3c(c2)OCO3)cn1
15 | 0.802 | 4.18 | 18.8 | – | 0.0469 | 0.0708 | C#C[C@@](C)(CC)NC(=O)c1cc(F)cnc1NC1CC(F)(F)C1
16 | 0.743 | 1.62 | 21.1 | – | – | – | CCCc1noc(CN2CCN(c3ccccc3OC)CC2)n1
17 | 0.9 | 0.343 | 8.28 | – | – | – | COc1cccc(Cn2cnc3c(c2=O)COCC3)c1Cl
18 | 0.338 | 7.2 | 11.4 | 0.0317 (≈ 55.2 µM) | – | – | Cc1cn(CCN2CCN(c3ccccc3-c3cc(C#N)cc(C(=O)NCCCN4CCCC4)c3)CC2)c2ccccc12
19 | 0.418 | 2.53 | 22.5 | 0.0197 (≈ 70.4 µM) | – | – | COc1ccccc1-c1nn(-c2ccccc2)cc1CO
20 | 0.483 | 15.7 | 80.3 | 0.0555 (≈ 182 µM) | – | – | COc1ccc(C2(NCc3cccc4ncccc34)CC2)cc1
21 | 1.43 | ≤ 0.284 | 3.26 | 0.0361 (≈ 116 µM) | – | – | Cc1cc(C)c(NC(=O)c2ccnc(OC3CCC3)c2)c(C)n1
22 | 0.644 | ≤ 0.284 | 6.14 | – | – | – | Cc1cc(Br)cn(Cc2ccc(C#N)cc2F)c1=O
23 | 6.55 | ≤ 0.284 | 1.15 | 0.048 (≈ 158 µM) | – | – | CC(C)C(=O)N1CCC(Nc2ncnc3ccsc23)CC1
24 | 1.58 | 0.998 | 5.35 | 0.0108 (≈ 34.7 µM) | – | – | Cn1ncc2c1CCc1sc(NC(=O)c3cccnc3)nc1-2
25 | 98 | 3.2 | 39 | 0.0575 (≈ 128 µM) | 0.0331 | 0.0384 | CC(=O)Nc1ccc(C(=O)N2CCCCC2c2nc(N)ncc2-c2cccc(Cl)c2)cc1 (stereo unspecified)
26 | – | 5.98 | 10.8 | 0.0405 (≈ 143 µM) | 0.32 | 0.389 | COc1nn(C)cc1C(=O)Nc1cccc2cnccc12
27 | 4.89 | 8.37 | 115 | – | – | – | Cc1cc(C)c2[nH]c(C(=O)N3CC[C@@](O)(CC(C)C)[C@@H](Oc4ccc(F)cc4)C3)c(C)c2c1

Row | MDR1-MDCK efflux ratio | intrinsic clearance, human liver microsomes [L/h/kg] | intrinsic clearance, rat liver microsomes [L/h/kg] | aqueous solubility [mg/mL] | fraction unbound, human plasma | fraction unbound, rat plasma | SMILES
28 | 15.2 | – | – | 0.0003 (≈ 0.844 µM) | – | – | Cc1ccc2[nH]c(C3CN(C(=O)Cc4cccc5ccccc45)C3)nc2c1
29 | – | – | – | 0.0408 (≈ 159 µM) | – | – | CC(C)(C)c1noc(COc2ccccc2C#N)n1
30 | 17.5 | ≤ 0.284 | 30.7 | 0.0391 (≈ 107 µM) | – | – | COc1cccc(OCCCN)c1-c1cc(Nc2cnc(C#N)cn2)n[nH]1
31 | – | – | – | 0.0129 (≈ 32.8 µM) | – | – | CC1(C)CC(Oc2ccc(-c3ccc(-c4cn[nH]c4)cc3O)nn2)CC(C)(C)N1
32 | – | 6.3 | 104 | – | – | – | CN(Cc1nc2ccccc2n1C)c1ccnc(-c2ccccc2)n1
33 | – | – | – | 0.0338 (≈ 169 µM) | – | – | N#Cc1cccc(NC(=O)C2CCC2)c1
34 | 0.961 | 9.05 | 151 | 0.0291 (≈ 83.6 µM) | – | – | CSc1ccc(CN(CCO)C(=O)CCc2cccc(F)c2)cc1
35 | 11.5 | ≤ 0.284 | 19.4 | – | – | – | CCN1CCC(CCNc2ncc(C)c(N(C)C)n2)CC1
36 | 0.476 | 3.6 | 9.47 | 0.0714 (≈ 193 µM) | – | – | COC1CCN(C(=O)Nc2cc(C(F)(F)F)cc(C(F)(F)F)c2)CC1
37 | 9.23 | ≤ 0.284 | 1.36 | 0.0633 (≈ 230 µM) | – | – | O=C(Cc1ccc(F)cc1)NCCn1cccnc1=O
38 | 11.2 | 0.581 | 9.29 | – | – | – | Cc1cccc(C)c1OCC(=O)N(C)[C@@H]1CCC[C@@H](O)[C@@H]1O
39 | 2.74 | 7.43 | 75.7 | 0.0222 (≈ 62 µM) | – | – | CN(C)c1cnn(CCC(C#N)(c2ccccc2)c2ccccc2)c(=O)c1
40 | 16.2 | – | – | 0.0002 (≈ 0.359 µM) | – | – | Cc1ccc(-n2nc(C(C)(C)C)cc2NC(=O)NCc2cc(F)ccc2Oc2ccc3c(cnn3CCO)c2)cc1
41 | 3.86 | ≤ 0.284 | ≤ 0.64 | 0.0506 (≈ 177 µM) | – | – | CCc1nc2ccccc2n1CC(=O)N1CCNC(=O)C1
42 | – | 33.8 | 99 | 0.0752 (≈ 172 µM) | – | – | CCOc1cc2c(cc1CCC(=O)N1CCC(Cc3ncncc3C(N)=O)CC1)CCC2
43 | 0.713 | 1.13 | 65 | – | – | – | N#CC1(C(=O)NCC2(C3CC3)CC2)CCCCC1
44 | – | 9.45 | 16.6 | 0.0297 (≈ 80.7 µM) | – | – | COc1cc(C=C2C(=O)NN(c3ccccc3)C2=O)ccc1OCC(N)=O
45 | 2.62 | ≤ 0.284 | 1.24 | 0.0409 (≈ 169 µM) | – | – | CCNC(=O)c1ccc(CS(C)(=O)=O)cc1
46 | 0.926 | 27.6 | 121 | 0.0372 (≈ 112 µM) | – | – | CC(C(=O)Nc1ccccc1)N1CCCN(c2nccs2)CC1 (stereo unspecified)
47 | 0.463 | 11.9 | 42.8 | – | – | – | COC(=O)C1=NOC2(CCN(CCCCCF)CC2)C1
48 | 11.9 | ≤ 0.284 | 7.53 | 0.0424 (≈ 153 µM) | – | – | CC(=O)Nc1cccc(OCC(=O)N2CCCCC2)c1
49 | 1.21 | 0.809 | 10.7 | 0.0184 (≈ 59.1 µM) | – | – | CC1(c2nnc(-c3cc(-c4ccccc4)n[nH]3)o2)CCOCC1
50 | 0.664 | 0.661 | 7.44 | 0.0268 (≈ 95.7 µM) | – | – | COc1cc(CNc2nc3ccccc3nc2C)ccn1
51 | 0.826 | 31.4 | 17.8 | – | – | – | CCc1[nH]nc(NC2CCC(C(=O)OC)CC2)c1C (stereo unspecified)
52 | 7 | ≤ 0.284 | ≤ 0.64 | 0.0431 (≈ 151 µM) | – | – | O=C(c1ccc(O)nc1)N1CCN(c2ncccn2)CC1
53 | 0.59 | 1.87 | 7.15 | 0.0127 (≈ 43.1 µM) | – | – | N#Cc1ccccc1OCc1csc(-c2ncccn2)n1

Row | SMILES | MDR1-MDCK efflux ratio | intrinsic clearance, human liver microsomes [L/h/kg] | intrinsic clearance, rat liver microsomes [L/h/kg] | aqueous solubility [mg/mL] | fraction unbound, human plasma | fraction unbound, rat plasma
54 | O=C1Nc2ccccc2O[C@H]2C[C@@H]1N(Cc1cccnc1)C2 | 17.7 | 0.764 | 16.9 | 0.0943 (≈ 319 µM) | – | –
55 | CCN1CCC(N(C)c2ncnc3c2cnn3C)CC1 | 1.01 | 9.12 | 2.22 | 0.0412 (≈ 150 µM) | – | –
